Data from patent publication US6355799B1, “Substituted benzene compounds, process for their preparation, and herbicidal and defoliant compositions containing them” (ISK Americas Incorporated, priority 1997, dated 2002).

Tests used:
Assay type in all cases: in vivo
[1] = tested on: velvetleaf (Abutilon theophrasti, ABUTH); assay: Pre-emerge test, greenhouse herbicide activity screening; settings: pre-emerge, 14 days after application, scale 0-100
Description: (§1) A standard greenhouse herbicide activity screening system was used to evaluate the herbicidal efficacy and crop safety of these test compounds. Seven broadleaf weed species including redroot pigweed (Amaranthus retroflexus, AMARE, velvetleaf (Abutilon theophrasti, ABUTH), sicklepod (Cassia obtusifolia, CASOB), ivyleaf morningglory (Ipomoea hederacea, IPOHE), lambsquarters (Chenopodium album, CHEAL), common ragweed (Ambrosia artemisizfolia L., AMBEL), and cocklebur (Xanthium strumarium, XANST) were used as test species. Four grass weed species including green foxtail (Setaria viridis, SETVI), barnyardgrass (Echinochloa crus-galli, ECHCG), johnsongrass (Sorghum halepense, SORHA), and large crabgrass (Digitaria sanguinalis, DIGSA) were also used. In addition, three crop species, field corn (Zea mays L., var. Dekalb 535, CORN), soybean (Glycine max L., var. Pella 86, SOY), and is upland rice (Oryza sp., var. Tebonnet, RICE) were included.
(§2) All plants were grown in 10 cm square plastic pots which were filled with a sandy loam soil mix. For pre-emerge tests, seeds were planted one day prior to application of the test compounds. For post-emerge tests, seeds were planted 8-21 days prior to the test to allow emergence and good foliage development prior to application of the test substances. At the time of the post-emerge application, plants of all species were usually at the 2-3 leaf stage of development.
(§3) All test compounds Were dissolved in acetone and applied to the test units in a volume of 187 l /ha. Test materials were applied at rates ranging from 15 g ai/ha to 1000 g ai/ha using a track sprayer equipped with a TJ8001E even flow flat fan spray nozzle. Plants were arranged on a shelf so that the top of the canopy (post-emerge) or top of the soil surface (pre-emerge) was 40-45 cm below the nozzle. Pressurized air was used to force the test solution through the nozzle as it was mechanically advanced (via electrically driven chain drive) over the top of all test plants/pots. This application simulates a typical commercial field herbicide application.
(§4) In the post-emerge test, a commercial non-ionic surfactant was also included (0.25% v/v) to enhance wetting of the leaf surfaces of target plants. Immediately after application, test units of the pre-emerge applications were watered at the soil surface to incorporate the test materials. Subsequently, these test units were bottom-watered. Post-emerge test units were always bottom-watered.
(§5) At 14 days after application of the test materials, phytotoxicity ratings were recorded. A rating scale of 0-100 was used as previously described in Research Methods in Weed Science, 2nd edition, B. Truelove, Ed., Southern Weed Science Society, Auburn University, Auburn, Ala. 1977. Briefly, “0” corresponds to no damage and “100” corresponds to complete death of all plants in the test unit. This scale was used both to determine efficacy against weed species and damage to crop species. Herbicide activity data for various compounds of this invention, which are shown by compound No. in Tables 1-8, are shown in Tables 11 and 12.

[2] = tested on: lambsquarters (Chenopodium album, CHEAL); assay: as above; settings: pre-emerge, 14 days after application, scale 0-100
Description: as §1, §2, §3, §4, §5

[3] = tested on: barnyardgrass (Echinochloa crus-galli, ECHCG); assay: as above; settings: pre-emerge, 14 days after application, scale 0-100
Description: as §1, §2, §3, §4, §5

[4] = tested on: ivyleaf morningglory (Ipomoea hederacea, IPOHE); assay: as above; settings: pre-emerge, 14 days after application, scale 0-100
Description: as §1, §2, §3, §4, §5

[5] = tested on: green foxtail (Setaria viridis, SETVI); assay: as above; settings: pre-emerge, 14 days after application, scale 0-100
Description: as §1, §2, §3, §4, §5

[6] = tested on: large crabgrass (Digitaria sanguinalis, DIGSA); assay: as above; settings: pre-emerge, 14 days after application, scale 0-100
Description: as §1, §2, §3, §4, §5

[7] = tested on: sicklepod (Cassia obtusifolia, CASOB); assay: as above; settings: pre-emerge, 14 days after application, scale 0-100
Description: as §1, §2, §3, §4, §5

[8] = tested on: upland rice (Oryza sp., var. Tebonnet, RICE); assay: Post-emerge test, crop safety; settings: post-emerge, 14 days after application, rating scale 0-100
Description: as §1, §2, §3, §4, §5

[9] = tested on: field corn (Zea mays L., var. Dekalb 535, CORN); assay: Post-emerge test, crop safety; settings: post-emerge, 14 days after application, rating scale 0-100
Description: as §1, §2, §3, §4, §5

[10] = tested on: upland rice (Oryza sp., var. Tebonnet, RICE); assay: Pre-emerge test, crop safety; settings: pre-emerge, 14 days after application, scale 0-100
Description: as §1, §2, §3, §4, §5

[11] = tested on: field corn (Zea mays L., var. Dekalb 535, CORN); assay: Pre-emerge test, crop safety; settings: pre-emerge, 14 days after application, scale 0-100
Description: as §1, §2, §3, §4, §5

[12] = tested on: redroot pigweed (Amaranthus retroflexus, AMARE); assay: Pre-emerge test, greenhouse herbicide activity screening; settings: pre-emerge, 14 days after application, scale 0-100
Description: as §1, §2
as §3, with “Test materials were applied at rates ranging from 15 g ai/ha to 1000 g ai/ha using a track sprayer equipped with a TJ8001E even flow flat fan spray nozzle.” left out
as §4, §5

[13] = tested on: velvetleaf (Abutilon theophrasti, ABUTH); assay: Post-emerge test, greenhouse herbicide activity screening; settings: post-emerge, 14 days after application, rating scale 0-100
Description: as §1, §2, §3, §4, §5

[14] = tested on: lambsquarters (Chenopodium album, CHEAL); assay: as above; settings: post-emerge, 14 days after application, rating scale 0-100
Description: as §1, §2, §3, §4, §5

[15] = tested on: barnyardgrass (Echinochloa crus-galli, ECHCG); assay: as above; settings: post-emerge, 14 days after application, rating scale 0-100
Description: as §1, §2, §3, §4, §5

[16] = tested on: redroot pigweed (Amaranthus retroflexus, AMARE); assay: as above; settings: post-emerge, 14 days after application, rating scale 0-100
Description: as §1, §2, §3, §4, §5

[17] = tested on: ivyleaf morningglory (Ipomoea hederacea, IPOHE); assay: as above; settings: post-emerge, 14 days after application, rating scale 0-100
Description: as §1, §2, §3, §4, §5

[18] = tested on: green foxtail (Setaria viridis, SETVI); assay: as above; settings: post-emerge, 14 days after application, rating scale 0-100
Description: as §1, §2, §3, §4, §5

[19] = tested on: large crabgrass (Digitaria sanguinalis, DIGSA); assay: as above; settings: post-emerge, 14 days after application, rating scale 0-100
Description: as §1, §2, §3, §4, §5

[20] = tested on: sicklepod (Cassia obtusifolia, CASOB); assay: as above; settings: post-emerge, 14 days after application, rating scale 0-100
Description: as §1, §2, §3, §4, §5

**Q.** Which “phytotoxicity rating ABUTH” value ([1]; 63 g ai/ha) does the source give for COc1c(Cl)cc(F)c(-n2c(=O)cc(C(F)(F)F)n(C)c2=O)c1NC(=O)CCc1ccccc1C [2-129] here?
**A.** 100

**Q.** And the “phytotoxicity rating ABUTH” value ([1]; 250 g ai/ha)?
**A.** 100

**Q.** And the “phytotoxicity rating CHEAL” value ([2]; 63 g ai/ha)?
**A.** 100

**Q.** And the “phytotoxicity rating CHEAL” value ([2]; 250 g ai/ha)?
**A.** 100

**Q.** What about the “phytotoxicity rating ECHCG” value ([3]; 63 g ai/ha) of the same compound?
**A.** 30

**Q.** And the “phytotoxicity rating ECHCG” value ([3]; 250 g ai/ha)?
**A.** 80

**Q.** What about the “phytotoxicity rating IPOHE” value ([4]; 63 g ai/ha) of the same compound?
**A.** 50

**Q.** What about the “phytotoxicity rating IPOHE” value ([4]; 250 g ai/ha) of the same compound?
**A.** 70

**Q.** And the “phytotoxicity rating SETVI” value ([5]; 63 g ai/ha)?
**A.** 90

**Q.** And the “phytotoxicity rating SETVI” value ([5]; 250 g ai/ha)?
**A.** 100

**Q.** What about the “phytotoxicity rating DIGSA” value ([6]; 63 g ai/ha) of the same compound?
**A.** 60

**Q.** And the “phytotoxicity rating DIGSA” value ([6]; 250 g ai/ha)?
**A.** 100

**Q.** What about the “phytotoxicity rating CASOB” value ([7]; 63 g ai/ha) of the same compound?
**A.** 60

**Q.** What about the “phytotoxicity rating CASOB” value ([7]; 250 g ai/ha) of the same compound?
**A.** 90

**Q.** And the “RICE phytotoxicity rating (crop damage)” value ([8]; 63 g ai/ha)?
**A.** 35

**Q.** And the “RICE phytotoxicity rating (crop damage)” value ([8]; 250 g ai/ha)?
**A.** 75

**Q.** And the “CORN phytotoxicity rating (crop damage)” value ([9]; 63 g ai/ha)?
**A.** 70

**Q.** And the “CORN phytotoxicity rating (crop damage)” value ([9]; 250 g ai/ha)?
**A.** 100

**Q.** And the “phytotoxicity rating RICE (crop damage)” value ([10]; 63 g ai/ha)?
**A.** 40

**Q.** And the “phytotoxicity rating RICE (crop damage)” value ([10]; 250 g ai/ha)?
**A.** 80

**Q.** What about the “phytotoxicity rating CORN (crop damage)” value ([11]; 63 g ai/ha) of the same compound?
**A.** 50

**Q.** What about the “phytotoxicity rating CORN (crop damage)” value ([11]; 250 g ai/ha) of the same compound?
**A.** 90

**Q.** And the “phytotoxicity rating AMARE” value ([12]; 63 g ai/ha)?
**A.** 90

**Q.** And the “phytotoxicity rating AMARE” value ([12]; 250 g ai/ha)?
**A.** 100

**Q.** And the ABUTH phytotoxicity rating ([13]; 63 g ai/ha)?
**A.** 100

**Q.** What about the ABUTH phytotoxicity rating ([13]; 250 g ai/ha) of the same compound?
**A.** 100

**Q.** What about the CHEAL phytotoxicity rating ([14]; 63 g ai/ha) of the same compound?
**A.** 100

**Q.** And the CHEAL phytotoxicity rating ([14]; 250 g ai/ha)?
**A.** 100

**Q.** And the ECHCG phytotoxicity rating ([15]; 63 g ai/ha)?
**A.** 30

**Q.** And the ECHCG phytotoxicity rating ([15]; 250 g ai/ha)?
**A.** 50

**Q.** And the AMARE phytotoxicity rating ([16]; 63 g ai/ha)?
**A.** 100

**Q.** What about the AMARE phytotoxicity rating ([16]; 250 g ai/ha) of the same compound?
**A.** 100

**Q.** What about the IPOHE phytotoxicity rating ([17]; 63 g ai/ha) of the same compound?
**A.** 100

**Q.** And the IPOHE phytotoxicity rating ([17]; 250 g ai/ha)?
**A.** 100

**Q.** And the SETVI phytotoxicity rating ([18]; 63 g ai/ha)?
**A.** 80

**Q.** And the SETVI phytotoxicity rating ([18]; 250 g ai/ha)?
**A.** 90

**Q.** What about the DIGSA phytotoxicity rating ([19]; 63 g ai/ha) of the same compound?
**A.** 30

**Q.** And the DIGSA phytotoxicity rating ([19]; 250 g ai/ha)?
**A.** 70

**Q.** And the CASOB phytotoxicity rating ([20]; 63 g ai/ha)?
**A.** 80

**Q.** And the CASOB phytotoxicity rating ([20]; 250 g ai/ha)?
**A.** 100
